Assay results taken from patent US20240307382A1, “MODULATORS OF THE INTEGRATED STRESS PATHWAY” (Calico Life Sciences LLC, priority 2017, published 2024).

What follows are molecules tested on HEK293T cells carrying the ATF4 luciferase reporter (assay: ATF4-Luc assay (ATF4 luciferase reporter, tunicamycin-treated cells)). Conditions: Homo sapiens, HEK-293T, 1 μg/mL tunicamycin, 7 hours.
Type: cell-based
How it was run: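 A stable HEK293T reporter line was made by placing the full-length human ATF4 5′-UTR ahead of a firefly luciferase sequence without its start methionine, delivered by retroviral transduction and puromycin selection. Cells were seeded at 30,000 per well in polylysine-coated 384-well plates, exposed next day to 1 μg/mL tunicamycin plus compound for 7 hours, and luminescence was read with One Glo.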

**Q.** How did the EC50 turn out when `O=C(COc1ccc(Cl)c(F)c1)NC12CCC(NC(=O)c3cccnc3CO)(CC1)C[C@@H]2O` [Compound 1086, N-{(3S)-4-[2-(4-chloro-3-fluorophenoxy)acetamido]-3-hydroxybicyclo[2.2.2]octan-1-yl}-2-(hydroxymethyl)pyridine-3-carboxamide] was run?
**A.** > 2000 nM

**Q.** For `O=C(COc1ccc(OC(F)(F)F)cc1)NC12CCC(NC(=O)c3cccnc3CO)(CC1)C[C@@H]2O` [Compound 1087, 2-(hydroxymethyl)-N-[(3S)-3-hydroxy-4-{2-[4-(trifluoromethoxy)phenoxy]acetamido}bicyclo[2.2.2]octan-1-yl]pyridine-3-carboxamide], which EC50 is on record?
**A.** > 2000 nM

**Q.** For `CN(C)C(=O)c1cccnc1C(=O)NC12CC(NC(=O)COc3ccc(Cl)c(F)c3)(C1)C2` [Compound 1088, N^2-{3-[2-(4-chloro-3-fluorophenoxy)acetamido]bicyclo[1.1.1]pentan-1-yl}-N^3,N^3-dimethylpyridine-2,3-dicarboxamide], which EC50 is on record?
**A.** 1000 to 2000 nM

**Q.** How did the EC50 turn out when `O=C(COc1ccc(Cl)c(F)c1)NC12CC(NC(=O)c3ccc(Cl)c(O)c3)(C1)C2` [Compound 1089, 4-chloro-N-{3-[2-(4-chloro-3-fluorophenoxy)acetamido]bicyclo[1.1.1]pentan-1-yl}-3-hydroxybenzamide] was run?
**A.** 50 to 250 nM

**Q.** How did the EC50 turn out when `COCc1ccc(C(=O)NC23CC(NC(=O)COc4ccc(Cl)c(F)c4)(C2)C3)cn1` [Compound 1090, N-{3-[2-(4-chloro-3-fluorophenoxy)acetamido]bicyclo[1.1.1]pentan-1-yl}-6-(methoxymethyl)pyridine-3-carboxamide] was run?
**A.** 250 to 1000 nM

**Q.** With `O=C(COc1ccc(Cl)c(F)c1)NC12CC(NC(=O)c3ncccc3CO)(C1)C2` [Compound 1091, N-{3-[2-(4-chloro-3-fluorophenoxy)acetamido]bicyclo[1.1.1]pentan-1-yl}-3-(hydroxymethyl)pyridine-2-carboxamide] as the molecule, how does the EC50 read?
**A.** 250 to 1000 nM

**Q.** Which EC50 does the source give for `COc1cccnc1C(=O)NC12CC(NC(=O)COc3ccc(Cl)c(F)c3)(C1)C2` [Compound 1092, N-{3-[2-(4-chloro-3-fluorophenoxy)acetamido]bicyclo[1.1.1]pentan-1-yl}-3-methoxypyridine-2-carboxamide] here?
**A.** > 2000 nM

**Q.** Which EC50 does the source give for `O=C(COc1ccc(Cl)c(F)c1)NC12CC(NC(=O)c3ccc4c(n3)CCCC4)(C1)C2` [Compound 1093, N-{3-[2-(4-chloro-3-fluorophenoxy)acetamido]bicyclo[1.1.1]pentan-1-yl]-5,6,7,8-tetrahydroquinoline-2-carboxamide] here?
**A.** 50 to 250 nM

**Q.** For `O=C(COc1ccc(C(F)(F)F)cc1)NC12CCC(NC(=O)c3cc(C(F)F)no3)(CC1)C[C@@H]2O` [Compound 1094, 3-(difluoromethyl)-N-[(3S)-3-hydroxy-4-{2-[4-(trifluoromethyl)phenoxy]acetamido}bicyclo[2.2.2]octan-1-yl]-1,2-oxazole-5-carboxamide], which EC50 is on record?
**A.** 50 to 250 nM

**Q.** How did the EC50 turn out when `O=C(COc1ccc2c(c1)OC(F)(F)O2)NC12CCC(NC(=O)c3cc(C(F)F)no3)(CC1)C[C@@H]2O` [Compound 1095, N-[(3S)-4-{2-[(2,2-difluoro-2H-1,3-benzodioxol-5-yl)oxy]acetamido}-3-hydroxybicyclo[2.2.2]octan-1-yl]-3-(difluoromethyl)-1,2-oxazole-5-carboxamide] was run?
**A.** 50 to 250 nM

**Q.** For `O=C(COc1ccc(Cl)c(C(F)(F)F)c1)NC12CCC(NC(=O)c3cc(C(F)F)no3)(CC1)C[C@@H]2O` [Compound 1096, N-[(3S)-4-{2-[4-chloro-3-(trifluoromethyl)phenoxy]acetamido}-3-hydroxybicyclo[2.2.2]octan-1-yl]-3-(difluoromethyl)-1,2-oxazole-5-carboxamide], which EC50 is on record?
**A.** < 50 nM

**Q.** Which EC50 does the source give for `Cc1ccc(OCC(=O)NC23CCC(NC(=O)c4cc(C(F)F)no4)(CC2)C[C@@H]3O)cc1C` [Compound 1097, 3-(difluoromethyl)-N-{(3S)-4-[2-(3,4-dimethylphenoxy)acetamido]-3-hydroxybicyclo[2.2.2]octan-1-yl}-1,2-oxazole-5-carboxamide] here?
**A.** 50 to 250 nM

**Q.** For `Cc1ccc(OCC(=O)NC23CCC(NC(=O)c4cc(C(F)F)no4)(CC2)C[C@@H]3O)cc1` [Compound 1098, 3-(difluoromethyl)-N-{(3S)-3-hydroxy-4-[2-(4-methylphenoxy)acetamido]bicyclo[2.2.2]octan-1-yl}-1,2-oxazole-5-carboxamide], which EC50 is on record?
**A.** 50 to 250 nM

**Q.** How did the EC50 turn out when `O=C(COc1ccc(F)cc1)NC12CCC(NC(=O)c3cc(C(F)F)no3)(CC1)C[C@@H]2O` [Compound 1099, 3-(difluoromethyl)-N-{(3S)-4-[2-(4-fluorophenoxy)acetamido]-3-hydroxybicyclo[2.2.2]octan-1-yl}-1,2-oxazole-5-carboxamide] was run?
**A.** 50 to 250 nM

**Q.** How did the EC50 turn out when `O=C(COc1ccc(F)c(F)c1)NC12CCC(NC(=O)c3cc(C(F)F)no3)(CC1)C[C@@H]2O` [Compound 1100, 3-(difluoromethyl)-N-{(3S)-4-[2-(3,4-difluorophenoxy)acetamido]-3-hydroxybicyclo[2.2.2]octan-1-yl}-1,2-oxazole-5-carboxamide] was run?
**A.** 50 to 250 nM

**Q.** For `Cc1cc(OCC(=O)NC23CCC(NC(=O)c4cc(C(F)F)no4)(CC2)C[C@@H]3O)ccc1Cl` [Compound 1101, N-{(3S)-4-[2-(4-chloro-3-methylphenoxy)acetamido]-3-hydroxybicyclo[2.2.2]octan-1-yl}-3-(difluoromethyl)-1,2-oxazole-5-carboxamide], which EC50 is on record?
**A.** < 50 nM

**Q.** Which EC50 does the source give for `O=C(COc1ccc(Cl)cc1)NC12CCC(NC(=O)c3cc(C(F)F)no3)(CC1)C[C@@H]2O` [Compound 1102, N-{(3S)4-[2-(4-chlorophenoxy)acetamido]-3-hydroxybicyclo[2.2.2]octan-1-yl}-3-(difluoromethyl)-1,2-oxazole-5-carboxamide] here?
**A.** < 50 nM

**Q.** For `O=C(COc1ccc(Cl)c(Cl)c1)NC12CCC(NC(=O)c3cnc(C(F)F)o3)(CC1)C[C@@H]2O` [Compound 1103, N-{(3S)-4-[2-(3,4-dichlorophenoxy)acetamido]-3-hydroxybicyclo[2.2.2]octan-1-yl}-2-(difluoromethyl)-1,3-oxazole-5-carboxamide], which EC50 is on record?
**A.** < 50 nM

**Q.** How did the EC50 turn out when `O=C(COc1ccc(Cl)c(F)c1)NC12CCC(NC(=O)c3cnc(C(F)F)o3)(CC1)C[C@@H]2O` [Compound 1104, N-{(3S)-4-[2-(4-chloro-3-fluorophenoxy)acetamido]-3-hydroxybicyclo[2.2.2]octan-1-yl}-2-(difluoromethyl)-1,3-oxazole-5-carboxamide] was run?
**A.** < 50 nM

**Q.** For `O=C(COc1ccc(Cl)c(F)c1)NC12CCC(NC(=O)c3cc(CO)ccn3)(CC1)[C@@H](O)C2` [Compound 1105, N-{(2S)-4-[2-(4-chloro-3-fluorophenoxy)acetamido]-2-hydroxybicyclo[2.2.2]octan-1-yl}-4-(hydroxymethyl)pyridine-2-carboxamide], which EC50 is on record?
**A.** < 50 nM

**Q.** For `CCc1ncc(C(=O)NC23CCC(NC(=O)COc4ccc(Cl)c(F)c4)(CC2)C[C@@H]3O)o1` [Compound 1106, N-{(2S)-4-[2-(4-chloro-3-fluorophenoxy)acetamido]-2-hydroxybicyclo[2.2.2]octan-1-yl}-2-ethyl-1,3-oxazole-5-carboxamide], which EC50 is on record?
**A.** < 50 nM

**Q.** How did the EC50 turn out when `Cc1nn(C)cc1C(=O)NC12CCC(NC(=O)COc3ccc(Cl)c(F)c3)(CC1)C[C@@H]2O` [Compound 1107, N-{(2S)-4-[2-(4-chloro-3-fluorophenoxy)acetamido]-2-hydroxybicyclo[2.2.2]octan-1-yl}-1,3-dimethyl-1H-pyrazole-4-carboxamide] was run?
**A.** > 2000 nM

**Q.** With `Cc1nn(C)cc1C(=O)NC12CCC(NC(=O)COc3ccc(Cl)c(F)c3)(CC1)[C@@H](O)C2` [Compound 1108, N-{(3S)-4-[2-(4-chloro-3-fluorophenoxy)acetamido]-3-hydroxybicyclo[2.2.2]octan-1-yl}-1,3-dimethyl-1H-pyrazole-4-carboxamide] as the molecule, how does the EC50 read?
**A.** 50 to 250 nM

**Q.** Which EC50 does the source give for `O=C(COc1ccc(Cl)c(F)c1)NC12CCC(NC(=O)c3cc4cc(Cl)ccc4o3)(CC1)[C@@H](O)C2` [Compound 1109, 5-chloro-N-{(2S)-4-[2-(4-chloro-3-fluorophenoxy)acetamido]-2-hydroxybicyclo[2.2.2]octan-1-yl}-1-benzofuran-2-carboxamide] here?
**A.** < 50 nM
